This is an account of results in patent US5840835A, “Inhibitors of peptide binding to MHC class II proteins” (Merck & Co., Inc., priority 1996, dated 1998).

This assay concerns the target T1, DR1Dw1 (Homo sapiens, UniProt P01903+P01911, A100R/D57E/F55L/F60I/F76Y/I96L/L162R/M171V/P40L/Q125E/R42F/V115G/Y59C).
T1 construct: these are Drosophila transmembrane DR; made in house
In words: Inhibition of biotinylated RMBP 90-102 peptide binding to MHC class II DR1 (europium-streptavidin capture assay). The procedure: In studies optimizing the assay it was determined that only between 5 to 10% of the DR molecules are capable of binding added peptide. Therefore, the effective concentration of DR1Dw1 and DR4Dw4 was approximately 0.125 and 1.0 nM, respectively. […] The DR-peptide complexes (50 μL) are transferred to wells of a 96-well EIA plate precoated with LB3.1, the monoclonal antibody which recognizes the DR alleles of MHC Class II, and blocked with PBS with fetal calf serum (FCS). An additional 50 μL of 50 mM Tris, pH 7.0, containing 0.75% octyl glucoside is added to each well and the mixture incubated overnight at 4° C. Excess peptide is removed by washing with PBS containing 0.05% Tween 20 (Polyoxyethylene sorbitan monolaurate) and 0.01% NaN3. Europium-labeled streptavidin (Wallac Inc.) is added and incubated overnight. After washing, complexes are measured by the addition of Enhance™ buffer, the tradename for 0.1M acetate phthalate buffer, pH 3.2, containing 0.1% Triton X-100, tradename for polyoxyethylene ethers and other surface active compounds of Union Carbide Chemicals and Plastics Co., Inc. (particularly, a non-ionic surfactant for recovery of membrane components under non-denaturing conditions) 15 μM 2-naphthoyltrifluoroacetone, and 50 μM tri-N-octylphosphine oxide, which buffer releases the chelated europium from streptavidin and forms a highly fluorescent micellar solution. The resultant fluorescence is measured using a fluorescent plate reader (e.g., DELPHIA, Wallac, Inc.). The data are analyzed using a four-parameter logistical curve […] program (e.g., SigmaPlot) that calculates the concentration of biotinylated peptide giving a half-maximal signal (ED50).
The inhibition assay format is identical to the procedure described above with the exception that the unlabeled antagonist is serially diluted and incubated with constant concentrations of biotinylated RMBP 90-102 (0.3 nM for DR1Dw1 or 0.9 nM for DR4Dw4) and the MHC class II proteins. The concentration of unlabeled compound that prevents 50% of the labeled peptide from binding is the IC50 value. The concentration of the biotinylated RMBP 90-102 in each assay is experimentally determined to be […] one-sixth of its measured ED50 to assure the inhibition was primarily measuring the binding characteristics of the competitor.
In particular, a protocol for carrying out the inhibition assay is given below.
Preparation of antibody plate
Add 115 μL of 5 μg/mL LB3.1 in 50 mM Tris HCl pH 9.6/azide to each well of a Costar EIA plate. Incubate the plate overnight at 4° C.
Wash the plate 4 times with water/0.05% Tween-20/azide. Add 200 μL of PBS/5% FCS/azide for 1 hour at 4° C. to block the plate. The plate may be held at this point for later use or used immediately.
Flip out the block. It is not necessary to wash the plate. At 50 μL of load buffer (50 mM Tris HCl, pH 8.0 0.75% octylglucoside). Add to this volume 50 μL of the reaction mix from day 2, step 3 below.
Preparation of reaction mixture
(1) Add the following to a polypropylene round bottom 96-well plate such as a Costar #3794:
(A) Diluent (Ca Mg free PBS adjusted to pH 6.5 with 0.1M KH2 PO4 /0.75% octylglucoside/azide)0.81 μL
(B) Competitor at 16.6 times the final concentration in diluent or diluent alone 0.9 μL
(C) Biotinylated rat myelin basic protein (BRMBP) 90-102; 1.5 nM for DR1 or 4.5 nM for DR4 (These are 5×stocks of final concentrations of 0.3 nM/DR1 or 0.9 nM/DR4) 30 μL
(D) 6.25 nM DR1Dw1 or 50 nM DR4Dw4 (these are Drosophila transmembrane DR) (This is a 5×stock of the final concentration of 1.25 or 10 nM.) 30 μL Add the DR last and mix well at this time 150 μL
(2) Incubate at 37° C. for 20 min and 5 hours.
(3) Add 50 μL of this reaction mixture to one well of the blocked antibody plate from day 2 above.
(4) Incubate overnight at 4° C. to capture the DR-peptide complexes.
(5) Wash 4× with H2 O/0.05% Tween-20/azide […]

[1] abbreviates: 20 min incubation at 37° C., 0.3 nM biotinylated RMBP 90-102, 1.25 nM DR1Dw1, pH 6.5, read-out: IC50 /nM @ 20 min.
The mark [2] stands for this setting: 5 hours incubation at 37° C., 0.3 nM biotinylated RMBP 90-102, 1.25 nM DR1Dw1, pH 6.5, read-out: IC50 /nM @ 5 Hrs.

Read-outs that look alike come from different tables or passages of the source.

As to “EtOCO-(L)Cha (L)Lys Nva.psi.[(E,CH=CH]Leu-NH2 TFA SALT [Example 5]”, the IC50 runs as follows: under setting [1], 21 nM; under setting [2], 142 nM.

“EtOCO-(L)Cha (L)Lys Nva.psi.[trans,cPr]Nle-NH2 TFA SALT [Example 6]”: the IC50 under setting [1] turned out to be 616 nM.

Turning to “EtOCO--(L)Cha(L)Lys Nva.psi.[E,CH=CH]Nle-NH2 TFA [Example 4]”, the IC50 runs as follows: under setting [1], 37 nM; under setting [2], 194 nM.

Consider “N-(3-CYCLOHEXYLPROPYL)-(L)(ε-NICOTINOYL)Lys Nva.psi.[E,CH=CH]Nle-NH2 TFA SALT [Example 7]”, for which the IC50 under setting [1] worked out at 409 nM and the IC50 under setting [2] was 2280 nM.

With “α-(3-CYCLOHEXYLPROPYL)-(L)(3-PYRIDYL)Ala Nva.psi.[(E)CH=CH]Leu-NH2 TFA SALT [Example 9]”, the IC50 amounted to 2520 nM under setting [1] and 16600 nM under setting [2].

Regarding “α-(3-CYCLOHEXYLPROPYL)-(L)(ε-NICOTINOYL)Lys Nva.psi.[(E)CH=CH]Leu-NH2 TFA SALT [Example 8]”, the IC50 was found to be 1050 nM under setting [1] and 5600 nM under setting [2].
